Data published in ChEMBL document CHEMBL1201862, “PubChem BioAssay data set” (2004).
The source made the active and inactive calls.

Experiments:
[1] = molecular target: Nonstructural protein 1 (Influenza A virus, UniProt Q194T2); assay type: functional, Influenza A virus (A/California/07/2009(H1N1))
[2] = molecular target: Protein disulfide-isomerase (Homo sapiens, UniProt P07237); test: PDI inhibitors, insulin aggregation turbidity, dose response, biochemical, absorbance, cherry-picked samples (AID 602350); assay type: functional
[3] = molecular target: Protein S100-A4 (Homo sapiens, UniProt P26447); test: S100A4-myosin IIA binding inhibitor potency, dose response, biochemical, fluorescence polarization, cherry-picked hits (AID 687001); assay type: functional
[4] = molecular target: ELAV-like protein 1 (Homo sapiens, UniProt Q15717); test: Identify HuR specific inhibitors.; assay type: functional
[5] = molecular target: Protein kinase C theta type (Homo sapiens, UniProt Q04759); test: Navigating the Kinome. Panel member name: PRKCQ; assay type: functional
[6] = molecular target: Dual specificity protein kinase CLK2 (Homo sapiens, UniProt P49760); assay type: functional
[7] = molecular target: Dual specificity mitogen-activated protein kinase kinase 1 (Homo sapiens, UniProt Q02750); test: Navigating the Kinome. Panel member name: MAP2K1; assay type: functional
[8] = molecular target: Tyrosine-protein kinase JAK2 (Homo sapiens, UniProt O60674); assay type: functional;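 further: JAK2 tested as one member of a kinase panel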
[9] = molecular target: Serine/threonine-protein kinase TBK1 (Homo sapiens, UniProt Q9UHD2); test: Navigating the Kinome. Panel member name: TBK1; assay type: functional
[10] = molecular target: 5'-AMP-activated protein kinase catalytic subunit alpha-1 (Homo sapiens, UniProt Q13131); assay type: functional
[11] = molecular target: ALK tyrosine kinase receptor (Homo sapiens, UniProt Q9UM73); assay type: functional;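 further: ALK tested as one member of a kinase panel screen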
[12] = molecular target: Proto-oncogene tyrosine-protein kinase receptor Ret (Homo sapiens, UniProt P07949); assay type: functional;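 further: measured within a kinome-wide profiling panel, RET as the panel member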
[13] = molecular target: Tyrosine-protein kinase receptor TYRO3 (Homo sapiens, UniProt Q06418); assay type: functional;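 further: TYRO3 value obtained as one member of a kinome-wide profiling panel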
[14] = molecular target: Serine/threonine-protein kinase D3 (Homo sapiens, UniProt O94806); assay type: functional;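 further: determined within a kinase panel screen, with PRKCN as the panel member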
[15] = molecular target: Death-associated protein kinase 3 (Homo sapiens, UniProt O43293); assay type: functional;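 further: measured as one member of a kinome-wide profiling panel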
[16] = molecular target: Activin receptor type-1 (Homo sapiens, UniProt Q04771); test: Navigating the Kinome. Panel member name: ACVR1; assay type: functional
[17] = molecular target: Mitogen-activated protein kinase 8 (Homo sapiens, UniProt P45983); assay type: functional;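 further: value comes from one member of a kinome-wide kinase profiling panel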
[18] = molecular target: Serine/threonine-protein kinase pim-1 (Homo sapiens, UniProt P11309); assay type: functional
[19] = molecular target: Aurora kinase A (Homo sapiens, UniProt O14965); assay type: functional;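 further: value from the Navigating the Kinome kinase panel profiling, panel entry STK6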
[20] = molecular target: Serine/threonine-protein kinase PAK 4 (Homo sapiens, UniProt O96013); assay type: functional;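 further: value obtained within a kinome profiling panel in which PAK4 was one of the panel members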
[21] = molecular target: Fibroblast growth factor receptor 1 (Homo sapiens, UniProt P11362); assay type: functional
[22] = molecular target: Casein kinase I isoform alpha (Homo sapiens, UniProt P48729); assay type: functional
[23] = molecular target: LIM domain kinase 1 (Homo sapiens, UniProt P53667); test: Navigating the Kinome. Panel member name: LIMK1; assay type: functional
[24] = molecular target: Serine/threonine-protein kinase TAO1 (Homo sapiens, UniProt Q7L7X3); assay type: functional
[25] = molecular target: Glycogen synthase kinase-3 alpha (Homo sapiens, UniProt P49840); assay type: functional;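 further: GSK3A result taken from a broad kinome-wide kinase panel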
[26] = molecular target: Mitogen-activated protein kinase kinase kinase kinase 2 (Homo sapiens, UniProt Q12851); assay type: functional;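 further: measured as one member of a kinome-wide kinase panel, with MAP4K2 as the panel entry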
[27] = molecular target: Hepatocyte growth factor receptor (Homo sapiens, UniProt P08581); assay type: functional;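 further: kinase panel profiling across the kinome, with MET as the panel member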
[28] = molecular target: Activated CDC42 kinase 1 (Homo sapiens, UniProt Q07912); test: Navigating the Kinome. Panel member name: ACK1; assay type: functional
[29] = molecular target: Serine/threonine-protein kinase Chk1 (Homo sapiens, UniProt O14757); assay type: functional;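 further: measured as one member of a kinome-wide kinase profiling panel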
[30] = molecular target: Tyrosine-protein kinase ABL1 (Homo sapiens, UniProt P00519); assay type: functional
[31] = molecular target: Vascular endothelial growth factor receptor 2 (Homo sapiens, UniProt P35968); assay type: functional
[32] = molecular target: Dual specificity tyrosine-phosphorylation-regulated kinase 1B (Homo sapiens, UniProt Q9Y463); test: Navigating the Kinome. Panel member name: DYRK1B; assay type: functional
[33] = molecular target: cAMP-dependent protein kinase catalytic subunit PRKX (Homo sapiens, UniProt P51817); assay type: functional
[34] = molecular target: Platelet-derived growth factor receptor alpha (Homo sapiens, UniProt P16234); test: Navigating the Kinome. Panel member name: PDGFRA; assay type: functional
[35] = molecular target: Leucine-rich repeat serine/threonine-protein kinase 2 (Homo sapiens, UniProt Q5S007); assay type: functional;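 further: value from a broad kinome-wide panel profiling study in which LRRK2 was one of the kinases tested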
[36] = molecular target: Aurora kinase B (Homo sapiens, UniProt Q96GD4); assay type: functional
[37] = molecular target: Cyclin-dependent kinase 19 (Homo sapiens, UniProt Q9BWU1); test: Navigating the Kinome. Panel member name: CDC2L6; assay type: functional
[38] = molecular target: Rho-associated protein kinase 1 (Homo sapiens, UniProt Q13464); assay type: functional;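 further: measured within a broad kinome-wide panel profiling many kinases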
[39] = molecular target: Serine/threonine-protein kinase Nek2 (Homo sapiens, UniProt P51955); assay type: functional
[40] = molecular target: Cyclin-dependent kinase 8 (Homo sapiens, UniProt P49336); test: Navigating the Kinome. Panel member name: CDK8; assay type: functional
[41] = molecular target: Cyclin-dependent kinase 7 (Homo sapiens, UniProt P50613); assay type: functional;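 further: value comes from a kinome-wide kinase profiling panel in which CDK7 is one member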
[42] = molecular target: Vascular endothelial growth factor receptor 1 (Homo sapiens, UniProt P17948); assay type: functional;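 further: measured within a kinome-wide profiling panel, FLT1 as the panel member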
[43] = molecular target: Glycogen synthase kinase-3 beta (Homo sapiens, UniProt P49841); assay type: functional;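 further: value comes from a broad kinome profiling panel, with GSK3B as the panel member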
[44] = molecular target: Cyclin-dependent kinase 9 (Homo sapiens, UniProt P50750); assay type: functional;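 further: value from the CDK9 entry of a kinome-spanning kinase panel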
[45] = molecular target: BDNF/NT-3 growth factors receptor (Homo sapiens, UniProt Q16620); assay type: functional;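 further: NTRK2 measured as one member of a broad kinome-wide kinase profiling panel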
[46] = molecular target: cAMP-dependent protein kinase catalytic subunit alpha (Homo sapiens, UniProt P17612); assay type: functional
[47] = molecular target: Dual specificity protein kinase CLK4 (Homo sapiens, UniProt Q9HAZ1); assay type: functional
[48] = molecular target: Mitogen-activated protein kinase kinase kinase kinase 4 (Homo sapiens, UniProt O95819); assay type: functional
[49] = molecular target: Macrophage-stimulating protein receptor (Homo sapiens, UniProt Q04912); test: Navigating the Kinome. Panel member name: MST1R; assay type: functional
[50] = molecular target: Macrophage colony-stimulating factor 1 receptor (Homo sapiens, UniProt P07333); assay type: functional;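 further: value comes from the Navigating the Kinome screening panel, CSF1R member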
[51] = molecular target: Dual specificity mitogen-activated protein kinase kinase 2 (Homo sapiens, UniProt P36507); test: Navigating the Kinome. Panel member name: MAP2K2; assay type: functional
[52] = molecular target: Dual specificity tyrosine-phosphorylation-regulated kinase 1A (Homo sapiens, UniProt Q13627); assay type: functional;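 further: measured against DYRK1A as one member of a broad kinome profiling panel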
[53] = molecular target: Inhibitor of nuclear factor kappa-B kinase subunit epsilon (Homo sapiens, UniProt Q14164); test: Navigating the Kinome. Panel member name: IKBKE; assay type: functional
[54] = molecular target: Calcium/calmodulin-dependent protein kinase type II subunit alpha (Homo sapiens, UniProt Q9UQM7); test: Navigating the Kinome. Panel member name: CAMK2A; assay type: functional
[55] = molecular target: Leukocyte tyrosine kinase receptor (Homo sapiens, UniProt P29376); test: Navigating the Kinome. Panel member name: LTK; assay type: functional
[56] = molecular target: T1, Luciferin 4-monooxygenase (Photinus pyralis, UniProt P08659); test: firefly luciferase enzyme inhibitors, dose response, biochemical, luminescence (AID 1891)
[57] = Luminescence Cell-Based Dose Confirmation HTS to Identify Inhibitors of Platelet Dense Granule Release. [Related pubchem assays: 1663 (Primary HTS), 1678 (Summary of Project)]; assay type: functional
[58] = molecular target: Cyclin-dependent kinase 5/CDK5 activator 1 (Homo sapiens, UniProt Q00535); test: CDK5/p35 kinase inhibitors, dose response, biochemical, cherry-picked samples, set 2 (AID 504545)
[59] = molecular target: T1, Luciferin 4-monooxygenase; test: firefly luciferase enzyme inhibitors, dose response, biochemical, dry powder samples, plate reader (AID 588451)
[60] = system: H4; test: Amyloid Precursor 5' UTR neuroblastoma cell reporter line Measured in Cell-Based System Using Plate Reader - 2078-04_Inhibitor_Dose_DryPowder_Activity. [Related pubchem assays (depositor defined):AID488894]; assay type: functional; settings: Homo sapiens
[61] = system: H4; test: Inhibitors of Prion Protein 5' UTR mRNA Measured in Cell-Based System Using Plate Reader - 2078-01_Inhibitor_Dose_DryPowder_Activity. [Related pubchem assays (depositor defined):AID488894]; assay type: functional; settings: Homo sapiens
[62] = molecular target: Paired box protein Pax-8 (Homo sapiens, UniProt Q06710); test: inhibitors of PAX8-driven TPO luciferase reporter, dose response, RMG-I cells, cherry-pick (AID 687027); assay type: functional, cell-based;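 further: luciferase reporter driven by Pax8 target thyroperoxidase promoter measured by SteadyGlo luminescence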
[63] = non-specific cell cytotoxicity, dose response, cytotoxicity control for PAX8 inhibitor project, plate reader, dry powder samples (AID 743021); assay type: functional, cell-based
[64] = molecular target: Melanin-concentrating hormone receptor 1 (Homo sapiens, UniProt Q99705); test: Late-stage fluorescence-based counterscreen for antagonists of the G-protein coupled receptor 7 (GPR7): cell-based dose response assay to identify antagonists of the melanin-concentrating hormone receptor 1 (MCHR1) Set 5.; assay type: functional

T1 sequence (P08659 whole entry): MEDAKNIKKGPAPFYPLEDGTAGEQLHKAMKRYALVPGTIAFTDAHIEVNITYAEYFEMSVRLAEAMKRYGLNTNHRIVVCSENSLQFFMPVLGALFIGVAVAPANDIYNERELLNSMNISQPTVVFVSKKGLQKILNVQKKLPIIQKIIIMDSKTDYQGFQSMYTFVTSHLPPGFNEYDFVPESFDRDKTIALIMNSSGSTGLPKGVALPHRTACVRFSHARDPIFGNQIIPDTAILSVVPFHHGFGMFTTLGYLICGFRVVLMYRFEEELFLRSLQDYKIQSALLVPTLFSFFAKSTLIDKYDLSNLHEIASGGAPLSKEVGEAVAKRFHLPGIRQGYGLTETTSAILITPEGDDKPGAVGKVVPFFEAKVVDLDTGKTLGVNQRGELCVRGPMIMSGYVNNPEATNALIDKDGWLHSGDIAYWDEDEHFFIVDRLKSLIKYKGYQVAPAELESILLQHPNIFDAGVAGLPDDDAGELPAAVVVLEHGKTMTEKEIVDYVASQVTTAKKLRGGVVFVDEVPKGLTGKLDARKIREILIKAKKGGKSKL
Sequence of Dual specificity mitogen-activated protein kinase kinase 1 (Q02750 whole entry): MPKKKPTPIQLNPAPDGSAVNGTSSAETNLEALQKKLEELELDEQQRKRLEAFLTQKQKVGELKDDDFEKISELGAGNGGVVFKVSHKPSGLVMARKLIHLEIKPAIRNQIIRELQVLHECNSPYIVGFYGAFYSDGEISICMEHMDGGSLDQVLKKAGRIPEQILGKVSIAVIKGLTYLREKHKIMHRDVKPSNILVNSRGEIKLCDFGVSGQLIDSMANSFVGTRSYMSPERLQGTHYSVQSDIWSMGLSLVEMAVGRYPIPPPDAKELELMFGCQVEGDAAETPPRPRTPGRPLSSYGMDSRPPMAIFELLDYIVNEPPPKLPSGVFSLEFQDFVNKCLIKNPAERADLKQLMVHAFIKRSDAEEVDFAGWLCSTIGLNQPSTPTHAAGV
Sequence of Cyclin-dependent kinase 19 (Q9BWU1 whole entry): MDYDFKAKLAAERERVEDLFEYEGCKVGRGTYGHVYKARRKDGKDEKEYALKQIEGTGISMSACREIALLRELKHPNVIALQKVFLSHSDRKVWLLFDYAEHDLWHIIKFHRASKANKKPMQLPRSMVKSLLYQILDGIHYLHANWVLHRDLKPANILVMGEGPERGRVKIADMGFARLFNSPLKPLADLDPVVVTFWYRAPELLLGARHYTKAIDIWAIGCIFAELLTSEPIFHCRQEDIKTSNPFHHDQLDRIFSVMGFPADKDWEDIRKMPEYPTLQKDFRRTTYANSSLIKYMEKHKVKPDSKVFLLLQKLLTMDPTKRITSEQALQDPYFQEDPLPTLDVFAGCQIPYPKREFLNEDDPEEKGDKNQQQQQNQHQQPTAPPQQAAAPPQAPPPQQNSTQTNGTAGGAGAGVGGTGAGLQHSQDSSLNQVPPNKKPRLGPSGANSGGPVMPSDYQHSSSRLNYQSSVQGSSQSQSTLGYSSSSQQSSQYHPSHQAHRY
Sequence of Glycogen synthase kinase-3 alpha (P49840 whole entry): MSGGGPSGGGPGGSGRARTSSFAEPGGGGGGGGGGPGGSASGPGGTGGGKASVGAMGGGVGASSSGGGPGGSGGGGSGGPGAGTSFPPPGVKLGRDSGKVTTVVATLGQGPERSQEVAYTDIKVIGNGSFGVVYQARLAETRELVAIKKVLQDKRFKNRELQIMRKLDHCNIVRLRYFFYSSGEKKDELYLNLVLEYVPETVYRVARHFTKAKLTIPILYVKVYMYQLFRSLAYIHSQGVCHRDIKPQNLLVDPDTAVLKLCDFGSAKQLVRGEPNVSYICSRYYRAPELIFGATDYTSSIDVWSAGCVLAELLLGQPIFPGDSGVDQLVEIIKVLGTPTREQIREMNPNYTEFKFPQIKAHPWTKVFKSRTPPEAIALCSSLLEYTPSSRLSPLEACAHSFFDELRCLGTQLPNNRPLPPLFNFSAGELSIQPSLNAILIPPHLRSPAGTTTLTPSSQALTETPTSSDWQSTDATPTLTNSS
Sequence of Calcium/calmodulin-dependent protein kinase type II subunit alpha (Q9UQM7 whole entry): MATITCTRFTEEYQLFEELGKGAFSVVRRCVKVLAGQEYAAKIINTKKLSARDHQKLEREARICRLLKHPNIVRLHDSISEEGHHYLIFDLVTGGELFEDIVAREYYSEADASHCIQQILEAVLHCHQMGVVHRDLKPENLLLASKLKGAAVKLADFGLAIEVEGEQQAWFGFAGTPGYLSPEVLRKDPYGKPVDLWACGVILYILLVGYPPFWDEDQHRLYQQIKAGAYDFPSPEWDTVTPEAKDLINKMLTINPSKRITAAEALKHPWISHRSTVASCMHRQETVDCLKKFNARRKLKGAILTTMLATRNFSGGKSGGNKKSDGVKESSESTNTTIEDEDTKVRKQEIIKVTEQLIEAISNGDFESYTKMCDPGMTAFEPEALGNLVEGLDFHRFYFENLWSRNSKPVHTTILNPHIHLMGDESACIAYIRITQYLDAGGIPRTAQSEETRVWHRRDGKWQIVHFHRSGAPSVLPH
Sequence of Rho-associated protein kinase 1 (Q13464 whole entry): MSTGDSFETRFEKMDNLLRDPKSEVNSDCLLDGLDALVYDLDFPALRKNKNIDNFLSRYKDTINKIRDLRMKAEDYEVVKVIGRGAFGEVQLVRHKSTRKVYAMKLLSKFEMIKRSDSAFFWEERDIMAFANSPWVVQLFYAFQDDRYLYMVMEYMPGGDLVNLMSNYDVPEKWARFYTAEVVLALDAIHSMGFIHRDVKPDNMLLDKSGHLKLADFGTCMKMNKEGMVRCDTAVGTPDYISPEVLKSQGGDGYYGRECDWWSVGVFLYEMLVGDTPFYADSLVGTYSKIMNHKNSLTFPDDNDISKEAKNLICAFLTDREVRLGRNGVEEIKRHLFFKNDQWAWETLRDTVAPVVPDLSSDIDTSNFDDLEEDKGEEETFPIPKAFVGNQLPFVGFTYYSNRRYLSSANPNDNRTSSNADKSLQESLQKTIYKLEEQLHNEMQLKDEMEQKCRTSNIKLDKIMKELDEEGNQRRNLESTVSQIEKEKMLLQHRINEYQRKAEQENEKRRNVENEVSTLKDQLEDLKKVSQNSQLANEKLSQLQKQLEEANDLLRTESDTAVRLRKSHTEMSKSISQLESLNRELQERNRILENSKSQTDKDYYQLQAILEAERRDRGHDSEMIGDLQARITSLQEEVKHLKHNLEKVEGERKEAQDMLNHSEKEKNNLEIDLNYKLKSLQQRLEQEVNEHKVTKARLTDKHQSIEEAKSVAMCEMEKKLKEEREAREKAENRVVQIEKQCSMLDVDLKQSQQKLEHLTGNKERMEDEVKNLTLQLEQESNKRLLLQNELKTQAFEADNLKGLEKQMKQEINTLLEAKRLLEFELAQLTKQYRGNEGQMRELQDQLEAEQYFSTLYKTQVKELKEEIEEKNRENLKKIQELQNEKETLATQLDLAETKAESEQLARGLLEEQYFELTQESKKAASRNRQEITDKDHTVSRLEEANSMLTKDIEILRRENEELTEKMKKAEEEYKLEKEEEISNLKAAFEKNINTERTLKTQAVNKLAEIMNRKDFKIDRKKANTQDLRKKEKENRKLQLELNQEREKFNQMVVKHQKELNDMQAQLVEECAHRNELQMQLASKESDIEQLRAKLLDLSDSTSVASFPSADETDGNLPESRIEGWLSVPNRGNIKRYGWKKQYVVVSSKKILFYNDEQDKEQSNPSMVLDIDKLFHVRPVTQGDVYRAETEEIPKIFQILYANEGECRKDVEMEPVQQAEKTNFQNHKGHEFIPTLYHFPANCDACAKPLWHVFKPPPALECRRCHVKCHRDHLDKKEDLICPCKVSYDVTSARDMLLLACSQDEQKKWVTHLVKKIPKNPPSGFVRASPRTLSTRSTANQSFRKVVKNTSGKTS
Sequence of Nonstructural protein 1 (Q194T2 whole entry): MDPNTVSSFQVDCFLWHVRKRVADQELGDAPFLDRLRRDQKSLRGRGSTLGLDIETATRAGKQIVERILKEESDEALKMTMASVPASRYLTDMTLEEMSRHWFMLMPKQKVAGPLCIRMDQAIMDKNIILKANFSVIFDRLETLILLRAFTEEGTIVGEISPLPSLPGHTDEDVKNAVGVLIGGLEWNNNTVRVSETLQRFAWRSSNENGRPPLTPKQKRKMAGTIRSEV
Sequence of Leukocyte tyrosine kinase receptor (P29376 whole entry): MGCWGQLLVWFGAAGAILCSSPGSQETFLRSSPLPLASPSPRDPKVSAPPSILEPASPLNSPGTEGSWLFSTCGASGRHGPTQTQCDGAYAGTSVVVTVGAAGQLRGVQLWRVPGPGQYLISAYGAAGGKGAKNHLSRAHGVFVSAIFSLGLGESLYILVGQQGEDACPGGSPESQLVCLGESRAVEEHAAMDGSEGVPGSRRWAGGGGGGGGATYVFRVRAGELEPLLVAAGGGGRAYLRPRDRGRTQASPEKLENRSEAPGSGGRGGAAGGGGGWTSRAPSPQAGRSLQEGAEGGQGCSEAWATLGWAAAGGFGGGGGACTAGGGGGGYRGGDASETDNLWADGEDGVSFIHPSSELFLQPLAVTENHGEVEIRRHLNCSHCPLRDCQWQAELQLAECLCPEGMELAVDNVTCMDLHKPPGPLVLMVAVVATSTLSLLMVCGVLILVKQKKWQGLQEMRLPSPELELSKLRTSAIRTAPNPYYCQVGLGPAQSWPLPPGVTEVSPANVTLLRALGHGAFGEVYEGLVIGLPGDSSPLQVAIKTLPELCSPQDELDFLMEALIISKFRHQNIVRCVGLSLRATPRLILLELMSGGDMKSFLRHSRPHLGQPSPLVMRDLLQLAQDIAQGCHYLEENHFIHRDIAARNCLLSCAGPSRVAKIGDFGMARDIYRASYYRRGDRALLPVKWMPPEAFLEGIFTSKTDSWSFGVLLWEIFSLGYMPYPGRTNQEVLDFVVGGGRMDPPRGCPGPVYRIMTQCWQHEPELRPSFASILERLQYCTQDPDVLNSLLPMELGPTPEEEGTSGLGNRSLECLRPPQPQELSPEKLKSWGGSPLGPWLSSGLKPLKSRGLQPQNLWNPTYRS
Sequence of Protein S100-A4 (P26447 whole entry): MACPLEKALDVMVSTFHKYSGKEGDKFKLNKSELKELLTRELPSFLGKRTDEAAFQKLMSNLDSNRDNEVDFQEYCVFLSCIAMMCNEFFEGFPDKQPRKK

COc1cccc2c1C(=O)c1c(O)c3c(c(O)c1C2=O)CC(O)(C(C)=NO)CC3OC1CC(N)C(O)C(C)O1 (centres undefined)
active: IC50 [1] 32 µM | AC50 [2] 16.9 µM | AC50 [3] 0.406 µM | IC50 [4] 21.7 µM

Nc1ncnc2c1N=C(c1ccccc1)CCN2
inactive: Ki [37] > 100 µM | Ki [44] > 63.1 µM | Ki [50] > 100 µM
active: Ki [5] 39.8 µM | Ki [6] 5.01 µM | Ki [7] 5.01 µM | Ki [8] 100 µM | Ki [9] 39.8 µM | Ki [10] 15.8 µM | Ki [11] 10 µM | Ki [12] 12.6 µM | Ki [13] 15.8 µM | Ki [14] 12.6 µM | Ki [15] 7.94 µM | Ki [16] 10 µM | Ki [17] 79.4 µM | Ki [18] 20 µM | Ki [19] 7.94 µM | Ki [20] 100 µM | Ki [21] 63.1 µM | Ki [22] 15.8 µM | Ki [23] 12.6 µM | Ki [24] 79.4 µM | Ki [25] 63.1 µM | Ki [26] 10 µM | Ki [27] 20 µM | Ki [28] 39.8 µM | Ki [29] 25.1 µM | Ki [30] 3.98 µM | Ki [31] 2 µM | Ki [32] 2 µM | Ki [33] 79.4 µM | Ki [34] 25.1 µM | Ki [35] 2 µM | Ki [36] 1.58 µM | Ki [38] 25.1 µM | Ki [39] 31.6 µM | Ki [40] 12.6 µM | Ki [41] 39.8 µM | Ki [42] 12.6 µM | Ki [43] 50.1 µM | Ki [45] 63.1 µM | Ki [46] 12.6 µM | Ki [47] 0.398 µM | Ki [48] 0.794 µM | Ki [49] 2 µM | Ki [51] 6.31 µM | Ki [52] 3.16 µM | Ki [53] 31.6 µM | Ki [54] 31.6 µM | Ki [55] 3.98 µM

Cc1ccc(C(=O)O/N=C(\N)c2ccccn2)cc1
active: EC50 [56] 0.994 µM | EC50 [57] 1.6 µM | AC50 [58] 39 µM | AC50 [59] 0.06 µM | AC50 [60] 0.244 µM | AC50 [61] 0.731 µM | AC50 [62] 15.5 µM | AC50 [63] 29.9 µM

COc1ccc(Oc2c(Cl)cnn(Cc3ccccc3OC)c2=O)cc1
active: IC50 [64] 6.63 µM
